Patent US20150216779A1, “COMPOSITIONS FOR TARGETED ANTI-AGING THERAPY” (THE TEXAS A&M UNIVERSITY SYSTEM, priority 2012, published 2015)

Assays:
[1] = CoQ10 storage stability in delivery system at 30° C., HPLC; type: physicochemical; conditions: 8 weeks at 30° C.; dispersed in matrix of heat-stabilized lactoferrin alone and in combination with branched-chain amino acids
Experimental: A delivery system containing the anti-aging agent CoQ10 is prepared as follows: A. Encapsulated-1 (CoQ10). Primary Emulsion. […] This mixture was coarsely homogenized for 3 min using a hand blender. Secondary Emulsion.
The primary and secondary emulsions were blended at 1:1 ratio. The final emulsion system contained 0.5% Menhaden oil/Smart Blend Omega oil, 0.1% heat-stabilized lactoferrin, 0.1% CoQ10 and 0.1% high-methoxyl pectin (w/w). The zinc ion concentration after dilution became 2.4 mg/100 ml. This delivery system for CoQ10 was homogenized (72° C., 22.5 MPa), followed by pasteurization (72° C., 120 s). B. Encapsulated-2 (CoQ10). Primary Emulsion. […] This mixture was coarsely homogenized for 3 min using a hand blender. Secondary Emulsion. […] The primary and secondary emulsions were blended at 1:1 ratio. The final emulsion system contained 0.5% Menhaden oil/Smart Blend Omega oil, 0.1% heat-stabilized lactoferrin, 0.2% branched-chain amino acids, 0.1% CoQ10, and 0.1% high-methoxyl pectin (w/w). The zinc ion concentration after dilution became 2.4 mg/100 ml. This delivery system for CoQ10 was homogenized (72° C., 22.5 MPa), followed by pasteurization (72° C., 120 s). C. Unencapsulated (CoQ10). […] This mixture was homogenized (72° C., 22.5 MPa), followed by pasteurization (72° C., 120 s). […]

[2] = Lutein photo-stability in delivery system at 21° C. under light 12 h daily, HPLC-PDA-MS/MS; type: physicochemical; conditions: UV and visible light 12 h daily at 21° C. over 8 weeks; dispersed in heat-stabilized lactoferrin matrix
Experimental: A. Encapsulated-1 (Lutein). Primary Emulsion. […] This mixture was coarsely homogenized for 3 min using a hand blender. Secondary Emulsion.
(§1) The primary and secondary emulsions were blended at 1:1 ratio. The final emulsion system contained 0.5% Menhaden oil/Smart Blend Omega oil, 0.1% heat-stabilized lactoferrin, 0.1% lutein, and 0.1% high-methoxyl pectin (w/w). The zinc ion concentration after dilution became 2.4 mg/100 ml. This delivery system for lutein was homogenized (72° C., 22.5 MPa), followed by pasteurization (72° C., 120 s).
B. Encapsulated-2 (Lutein). Primary Emulsion. […] This mixture was coarsely homogenized for 3 min using a hand blender. Secondary Emulsion.
as §1, with “lactoferrin, 0.2% branched-chain amino acids,” for “lactoferrin,”
C. Unencapsulated (Lutein). […] This mixture was homogenized (72° C., 22.5 MPa), followed by pasteurization (72° C., 120 s).
The samples (500 ml each) were aseptically dispensed into clean, clear 600-ml bottles made from polyethylene terephthalate (PET). […]

[3] = O/W emulsion, menhaden oil/Smart Blend Omega oil 1:1 (0.5% w/w), entrapped within β-lactoglobulin microcarriers; 28 days of storage at 30° C.

COC1=C(OC)C(=O)C(C/C=C(\C)CC/C=C(\C)CC/C=C(\C)CC/C=C(\C)CC/C=C(\C)CC/C=C(\C)CC/C=C(\C)CC/C=C(\C)CC/C=C(\C)CCC=C(C)C)=C(C)C1=O [CoQ10, coenzyme Q10]
degradation of CoQ10 during storage [1]: about 30%

CC1=C[C@H](O)CC(C)(C)[C@H]1/C=C/C(C)=C/C=C/C(C)=C/C=C/C=C(C)/C=C/C=C(C)/C=C/C1=C(C)C[C@@H](O)CC1(C)C [lutein]
light-sensitive degradation of xanthophyll carotenoid pigments (lutein) [2]: about 70%

docohexaenoic acid [DHA]
percentage of retained ω-3 fatty acid [3]: 79.5%
